Four molecules from US20120065226A1, “SALTS OF […] 10-CAMPH[…]” (ADAMED SP Z O.O., priority 2009, published 2012) can be followed below.

The nature of data set [1]: Hygroscopicity of the crystals. It is filed as physicochemical.
A short description of data set [2]: Recrystallization from various organic solvents, crystalline form by XRPD. In kind it is physicochemical. The conditions noted are these: XRPD analysis. The source says: The process for the preparation of novel tiotropium salts with 10-camphorsulphonic acid and with single optical isomers thereof as well as monohydrates of the salts according to the present invention allows to obtain the desired product as stable, non-hygroscopic crystals, with high yield and with purity acceptable for being used in pharmaceutical compositions. Stability of crystalline anhydrous tiotropium salts with 1R-(−)-10-camphorsulphonic and 1S-(+)-10-camphorsulphonic acids was confirmed experimentally. […] Therefore, no transformation or modification of a crystalline salt takes place.
XRPD patterns were obtained using Rigaku MiniFlex X-ray diffractometer, with Cu Kα radiation, filter Kβ. Lamps parameters were set at 30 kV and 15 mA. Divergence and scattering slits were set at 4.2°, and a receiving slit was set at 0.3 mm. Deflection of rays was detected with scintillation detector NaI. The θ/2θ continuous scan at 1°/min with a step of 0.02° from 2.0 to 40° 2θ was used. The samples were prepared by pressing the solid in a quartz holder.

Molecules are shown by their SMILES. Counter-ions that a name gives are not always drawn.

Turning to `CC1(C)C2CC[C@]1(CS(=O)(=O)[O-])C(=O)C2.C[N+]1(C)C2CC(OC(=O)C(O)(c3cccs3)c3cccs3)CC1C1OC12.O` (stereo not drawn) [Crystalline monohydrate of tiotropium salt with 1R-(−)-10-camphorsulphonic acid], the hygroscopicity result in data set [1] was “non-hygroscopic”.

As for `CC1(C)C2CC[C@@]1(CS(=O)(=O)[O-])C(=O)C2.C[N+]1(C)C2CC(OC(=O)C(O)(c3cccs3)c3cccs3)CC1C1OC12.O` (stereo not drawn) [Crystalline monohydrate of tiotropium salt with 1S-(+)-10-camphorsulphonic acid], in data set [1], the hygroscopicity entry is recorded as “non-hygroscopic”.

Turning to `C[N+]1(C)C2CC(OC(=O)C(O)(c3cccs3)c3cccs3)CC1C1OC12` (stereo not drawn) [Tiotropium salt with 1R-(−)-10-camphorsul-phonic acid, anhyd] [Tiotropium salt with 1R-(−)-10-camphorsulphonic acid (anhydrous)], the “crystalline form after recrystallization” value in data set [2] was “initial crystalline form”.

For the molecule `C[N+]1(C)C2CC(OC(=O)C(O)(c3cccs3)c3cccs3)CC1C1OC12` (stereo not drawn) [Tiotropium salt with 1S-(+)-10-camphorsul-phonic acid, anhyd] [Tiotropium salt with 1S-(+)-10-camphorsulphonic acid (anhydrous)], the “crystalline form after recrystallization” value in data set [2] is given as “initial crystalline form”.
